pEC50: −log10 of the molar value.
Assays:
[1] = tested on: lymphocyte progenitors (LymP); assay: MLTA, LymP: concentration-response and QSP model fit; type: cell-based, human; details: Homo sapiens, Lymphocyte, 144 h
Procedure, shortened: (§1)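 Freeze-thawed primary human bone marrow CD34+ cells were cultured 6 days in SFEM II with a cytokine cocktail, drug added on day 0. Subsets were counted by 17-parameter flow cytometry with TruCount beads and normalized to vehicle wells. An Emax QSP model (Emax 0–2, L1 regularization) was fitted to these counts.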

[2] = tested on: granulocyte-macrophage progenitor (GMPs); assay: MLTA, GMPs: concentration-response and QSP model fit; type: cell-based, human; details: Homo sapiens, 144 h
Procedure, shortened: as §1

[3] = tested on: monocytes (monocyte-lin); assay: MLTA, Mono: concentration-response and QSP model fit; type: cell-based, human; details: Homo sapiens, Monocyte, 144 h
Procedure, shortened: (§2)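 Parameters come from fitting an Emax-based QSP model, with L1 regularization and Emax ranging 0–2, to vehicle-normalized, bead-corrected flow cytometry counts. Counts came from human bone marrow CD34+ cells treated from day 0 through a 6-day multi-lineage cytokine culture in SFEM II, using 2–7 donors per drug.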

[4] = tested on: multi-potent progenitors (MPPs); assay: MLTA, MPPs: concentration-response and QSP model fit; type: cell-based, human; details: Homo sapiens, 144 h
Procedure, shortened: as §1

[5] = tested on: granulocytes (Gran-lin); assay: MLTA, Gran: concentration-response and QSP model fit; type: cell-based, human; details: Homo sapiens, 144 h
Procedure, shortened: as §2

[6] = tested on: B cells (B-lin); assay: MLTA, B-lin: concentration-response and QSP model fit; type: cell-based, human; details: Homo sapiens, B-cell, 144 h
Procedure, shortened: as §1

[7] = tested on: total dead cells (totalDeadCells); assay: MLTA, total dead cells concentration-response; type: cell-based; details: Homo sapiens, 144 h, 6 days, normalized to vehicle control, read-out: total_dead normalized cell count
Procedure, shortened: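 Freeze-thawed primary human bone marrow CD34+ cells in SFEM II with cytokine cocktail, drug added day 0, 6 days at 37°C, 5% CO2. Live/dead counts by 17-parameter flow cytometry with DAPI exclusion, bead-normalized, volume-corrected to cells/mL. Normalized per donor to mean of six vehicle wells; 2–7 donors pooled.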

[8] = tested on: hematopoietic stem cells (HSCs); assay: Multi-lineage toxicity assay (MLTA), HSCs: concentration-response and QSP model fit; type: cell-based, human; details: Homo sapiens, Hematopoietic stem cell, 144 h
Procedure, shortened: as §1

[9] = QSP model fit of 6-day MLTA data

- pEC50 [2, 9]: 8.85
- pEC50 [3, 9]: 5.99
- pEC50 [5, 9]: 9.78
- pEC50 [6, 9]: 7.04
SMILES: CS(=O)(=O)N1CCN(Cc2cc3nc(-c4cccc5[nH]ncc45)nc(N4CCOCC4)c3s2)CC1 [pictilisib]
- activity at 0.0002 µM ([1]; dose 0.2 nM, 6 days, normalized to vehicle control, read-out: LymP normalized cell count): 93.3%
- activity at 0.001 µM ([1]; dose 1 nM, 6 days, normalized to vehicle control, read-out: LymP normalized cell count): 105%
- activity at 0.005 µM ([1]; dose 5 nM, 6 days, normalized to vehicle control, read-out: LymP normalized cell count): 86.9%
- activity at 0.025 µM ([1]; dose 25 nM, 6 days, normalized to vehicle control, read-out: LymP normalized cell count): 77.7%
- activity at 0.1 µM ([1]; dose 100 nM, 6 days, normalized to vehicle control, read-out: LymP normalized cell count): 49.6%
- activity at 0.5 µM ([1]; dose 500 nM, 6 days, normalized to vehicle control, read-out: LymP normalized cell count): 46.4%
- activity at 2.5 µM ([1]; dose 2500 nM, 6 days, normalized to vehicle control, read-out: LymP normalized cell count): 19.2%
- Emax ([1]; parameter from QSP model fitting, read-out: Emax_drug_LymP): 0.032%
- activity at 0.0002 µM ([2]; dose 0.2 nM, 6 days, normalized to vehicle control, read-out: GMPs normalized cell count): 95.6%
- activity at 0.001 µM ([2]; dose 1 nM, 6 days, normalized to vehicle control, read-out: GMPs normalized cell count): 97.9%
- activity at 0.005 µM ([2]; dose 5 nM, 6 days, normalized to vehicle control, read-out: GMPs normalized cell count): 92.7%
- activity at 0.025 µM ([2]; dose 25 nM, 6 days, normalized to vehicle control, read-out: GMPs normalized cell count): 75.4%
- activity at 0.1 µM ([2]; dose 100 nM, 6 days, normalized to vehicle control, read-out: GMPs normalized cell count): 62.5%
- activity at 0.5 µM ([2]; dose 500 nM, 6 days, normalized to vehicle control, read-out: GMPs normalized cell count): 39.5%
- activity at 2.5 µM ([2]; dose 2500 nM, 6 days, normalized to vehicle control, read-out: GMPs normalized cell count): 22.5%
- activity at 0.0002 µM ([3]; dose 0.2 nM, 6 days, normalized to vehicle control, read-out: Mon normalized cell count): 92.5%
- activity at 0.001 µM ([3]; dose 1 nM, 6 days, normalized to vehicle control, read-out: Mon normalized cell count): 90.6%
- activity at 0.005 µM ([3]; dose 5 nM, 6 days, normalized to vehicle control, read-out: Mon normalized cell count): 79.5%
- activity at 0.025 µM ([3]; dose 25 nM, 6 days, normalized to vehicle control, read-out: Mon normalized cell count): 77.6%
- activity at 0.1 µM ([3]; dose 100 nM, 6 days, normalized to vehicle control, read-out: Mon normalized cell count): 61.1%
- activity at 0.5 µM ([3]; dose 500 nM, 6 days, normalized to vehicle control, read-out: Mon normalized cell count): 30.9%
- activity at 2.5 µM ([3]; dose 2500 nM, 6 days, normalized to vehicle control, read-out: Mon normalized cell count): 12.5%
- Emax ([3]; parameter from QSP model fitting, read-out: Emax_drug_Mono): 3.93%
- activity at 0.0002 µM ([4]; dose 0.2 nM, 6 days, normalized to vehicle control, read-out: MPPs normalized cell count): 89.3%
- activity at 0.001 µM ([4]; dose 1 nM, 6 days, normalized to vehicle control, read-out: MPPs normalized cell count): 82.2%
- activity at 0.005 µM ([4]; dose 5 nM, 6 days, normalized to vehicle control, read-out: MPPs normalized cell count): 71.7%
- activity at 0.025 µM ([4]; dose 25 nM, 6 days, normalized to vehicle control, read-out: MPPs normalized cell count): 67.2%
- activity at 0.1 µM ([4]; dose 100 nM, 6 days, normalized to vehicle control, read-out: MPPs normalized cell count): 49.1%
- activity at 0.5 µM ([4]; dose 500 nM, 6 days, normalized to vehicle control, read-out: MPPs normalized cell count): 38.2%
- activity at 2.5 µM ([4]; dose 2500 nM, 6 days, normalized to vehicle control, read-out: MPPs normalized cell count): 28%
- Emax ([4]; parameter from QSP model fitting, read-out: Emax_drug_MPP): 0.03%
- activity at 0.0002 µM ([5]; dose 0.2 nM, 6 days, normalized to vehicle control, read-out: Gran normalized cell count): 99.2%
- activity at 0.001 µM ([5]; dose 1 nM, 6 days, normalized to vehicle control, read-out: Gran normalized cell count): 100%
- activity at 0.005 µM ([5]; dose 5 nM, 6 days, normalized to vehicle control, read-out: Gran normalized cell count): 90.3%
- activity at 0.025 µM ([5]; dose 25 nM, 6 days, normalized to vehicle control, read-out: Gran normalized cell count): 78.6%
- activity at 0.1 µM ([5]; dose 100 nM, 6 days, normalized to vehicle control, read-out: Gran normalized cell count): 51.4%
- activity at 0.5 µM ([5]; dose 500 nM, 6 days, normalized to vehicle control, read-out: Gran normalized cell count): 27.9%
- activity at 2.5 µM ([5]; dose 2500 nM, 6 days, normalized to vehicle control, read-out: Gran normalized cell count): 9.84%
- Emax ([5]; parameter from QSP model fitting, read-out: Emax_drug_Gran): 23.2%
- activity at 0.0002 µM ([6]; dose 0.2 nM, 6 days, normalized to vehicle control, read-out: B-lin normalized cell count): 93.8%
- activity at 0.001 µM ([6]; dose 1 nM, 6 days, normalized to vehicle control, read-out: B-lin normalized cell count): 107%
- activity at 0.005 µM ([6]; dose 5 nM, 6 days, normalized to vehicle control, read-out: B-lin normalized cell count): 81.5%
- activity at 0.025 µM ([6]; dose 25 nM, 6 days, normalized to vehicle control, read-out: B-lin normalized cell count): 65.5%
- activity at 0.1 µM ([6]; dose 100 nM, 6 days, normalized to vehicle control, read-out: B-lin normalized cell count): 37.5%
- activity at 0.5 µM ([6]; dose 500 nM, 6 days, normalized to vehicle control, read-out: B-lin normalized cell count): 16.2%
- activity at 2.5 µM ([6]; dose 2500 nM, 6 days, normalized to vehicle control, read-out: B-lin normalized cell count): 6.19%
- Emax ([6]; parameter from QSP model fitting, read-out: Emax_drug_B): 51.4%
- activity at 0.0002 µM ([7]; dose 0.2 nM): 105%
- activity at 0.001 µM ([7]; dose 1 nM): 110%
- activity at 0.005 µM ([7]; dose 5 nM): 91.5%
- activity at 0.025 µM ([7]; dose 25 nM): 93.1%
- activity at 0.1 µM ([7]; dose 100 nM): 55.3%
- activity at 0.5 µM ([7]; dose 500 nM): 40.1%
- activity at 2.5 µM ([7]; dose 2500 nM): 34.3%
- pEC50 [8, 9]: 6.54
- activity at 0.0002 µM ([8]; dose 0.2 nM, 6 days, normalized to vehicle control, read-out: HSCs normalized cell count): 89.1%
- activity at 0.001 µM ([8]; dose 1 nM, 6 days, normalized to vehicle control, read-out: HSCs normalized cell count): 102%
- activity at 0.005 µM ([8]; dose 5 nM, 6 days, normalized to vehicle control, read-out: HSCs normalized cell count): 88.5%
- activity at 0.025 µM ([8]; dose 25 nM, 6 days, normalized to vehicle control, read-out: HSCs normalized cell count): 99.2%
- activity at 0.1 µM ([8]; dose 100 nM, 6 days, normalized to vehicle control, read-out: HSCs normalized cell count): 58.1%
- activity at 0.5 µM ([8]; dose 500 nM, 6 days, normalized to vehicle control, read-out: HSCs normalized cell count): 28.1%
- activity at 2.5 µM ([8]; dose 2500 nM, 6 days, normalized to vehicle control, read-out: HSCs normalized cell count): 8.09%
- Emax ([8]; parameter from QSP model fitting, read-out: Emax_drug_HSC): 48.6%

— publication PMC7402526, “An in vitro quantitative systems pharmacology approach for deconvolving mechanisms of drug-induced, multilineage cytopenias” (PLoS Computational Biology, 2020)
